The target of assay [1] is T1, α7-nicotinic acetylcholine receptor (Homo sapiens, UniProt P36544).
T1 construct: gene CHRNA7
Nature of the assay: two-electrode voltage clamp of ACh currents in Xenopus oocytes expressing the human receptor. The class given is cell-based.

The next assay concerns the target T2, α7-nACh receptor (Rattus norvegicus, UniProt Q05941).
T2 construct: gene Chrna7
The class given is cell-based.

2 compounds from paper PMC3720735 (PLoS ONE, 2013) can be followed below.

T1 sequence (P36544 23-502): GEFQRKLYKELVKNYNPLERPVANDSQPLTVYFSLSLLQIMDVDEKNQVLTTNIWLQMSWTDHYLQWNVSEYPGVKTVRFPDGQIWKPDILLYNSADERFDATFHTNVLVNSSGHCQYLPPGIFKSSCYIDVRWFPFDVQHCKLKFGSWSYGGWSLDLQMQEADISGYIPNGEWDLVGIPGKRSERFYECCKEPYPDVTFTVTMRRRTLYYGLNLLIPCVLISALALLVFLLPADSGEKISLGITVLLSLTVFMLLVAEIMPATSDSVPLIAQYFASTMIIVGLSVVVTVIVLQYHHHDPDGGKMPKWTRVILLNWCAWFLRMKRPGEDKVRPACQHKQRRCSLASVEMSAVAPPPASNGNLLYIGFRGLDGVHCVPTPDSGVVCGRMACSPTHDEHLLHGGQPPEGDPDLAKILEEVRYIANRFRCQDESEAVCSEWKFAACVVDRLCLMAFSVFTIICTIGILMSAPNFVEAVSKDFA
T2 sequence (Q05941 23-502): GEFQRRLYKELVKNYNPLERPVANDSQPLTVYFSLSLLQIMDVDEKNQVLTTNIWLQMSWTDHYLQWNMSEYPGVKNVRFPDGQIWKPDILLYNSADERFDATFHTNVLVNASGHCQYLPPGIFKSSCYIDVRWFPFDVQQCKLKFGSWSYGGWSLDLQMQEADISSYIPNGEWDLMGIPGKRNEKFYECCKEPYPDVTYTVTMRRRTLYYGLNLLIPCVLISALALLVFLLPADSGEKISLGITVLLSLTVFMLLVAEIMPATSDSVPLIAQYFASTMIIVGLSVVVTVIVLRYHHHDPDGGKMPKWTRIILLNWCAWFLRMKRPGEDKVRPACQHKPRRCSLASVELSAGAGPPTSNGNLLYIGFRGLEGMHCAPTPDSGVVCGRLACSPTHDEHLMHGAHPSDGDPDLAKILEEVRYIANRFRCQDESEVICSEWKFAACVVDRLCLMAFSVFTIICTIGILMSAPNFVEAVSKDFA

In assay [1], `CC1CCC(C(C)C)C(O)C1` (racemic) [menthol] returned a 50% inhibitory concentration (IC50) of 32.6 ± 2.3 µM. For the compound `O=C(N[C@H]1CN2CCC1CC2)c1ccc(Cl)cc1` [PNU282987], the “GCaMP5G Ca2+ imaging in PC12 cells (endogenous receptor), 10 μM, blocked by α-bu” value at α7-nACh receptor is given as “activation of the α7-nACh receptor with nicotine or the selective α7-agonist PNU282987 (PNU) was associated with a significant increase”.
